Read-outs that look alike come from different tables or passages of the source.
Columns and labels:
[1] = compound 150 µM, rat liver homogenate, 37 °C; cited from earlier work
[2] = Spectrophotometric methylene blue H2S release in phosphate buffer with or without thiols; settings: 37 °C, with or without L-cysteine or glutathione
A549 = test: MTT antiproliferative assay, A549; format: cell-based; settings: Homo sapiens, normoxic conditions, 72 h
Protocol: The human triple-negative breast cancer cell line (MDA-MB-231), colon cancer cell line (HCT-116), and lung cancer cell line (A549) used in this study were obtained from the American Type Culture Collection (ATCC). These cell lines were cultured as monolayers in Dulbecco’s Modified Eagle’s Medium (DMEM) supplemented with 10% FBS, 2 mM l-glutamine, 100 U/mL penicillin, and 100 µg/mL streptomycin sulfate. […] The cells were sub-cultured using trypsin/EDTA solution, counted with a hemocytometer, and plated on 96-well plates (5000 cells/well), allowing them to form a semi-confluent monolayer overnight. […]. DMSO (100 µL/well) was then added to dissolve the formazan crystals with shaking for 10 min, after which the absorb absorbance was read at 590 nm against no-cell blanks using a FLuo Star Optima microplate reader (BMG technologies, Ortenberg, Germany). Cell proliferation was calculated by comparing the OD values of the DMSO control wells with those of the samples, represented as % proliferation relative to the control.

hCA IV [3] = test: Stopped-flow CO2 hydrase inhibition assay, hCA IV; format: biochemical, human; settings: ratio of KIs
Protocol: (§1) An Applied Photophysics stopped-flow instrument (Applied Photophysics Ltd, Leatherhead, UK) was used for assaying the CA-catalyzed CO2 hydration activity. Phenol red (at a concentration of 0.2 mM) was used as an indicator, working at the absorbance maximum of 557 nm, with 20 mM Hepes (pH 7.5) as a buffer and 20 mM Na2SO4 for maintaining constant the ionic strength, following the initial rates of the CA-catalyzed CO2 hydration reaction for a period of 10−100 s. The CO2 concentrations ranged from 1.7 to 17 mM for the determination of the kinetic parameters and inhibition constants. For each inhibitor, at least six traces of the initial 5−10% of the reaction were used for determining the initial velocity. The uncatalyzed rates were determined in the same manner and subtracted from the total observed rates. Stock solutions of inhibitor (0.1 mM) were prepared in distilled−deionized water and dilutions up to 0.01 nM were made thereafter with the assay buffer. Inhibitor and enzyme solutions were preincubated together for 15 min at room temperature before the assay to allow for the formation of the E−I complex. The inhibition constants were obtained by nonlinear least-squares methods using Prism 7 (GraphPad Software, La Jolla, CA, USA) and the Cheng−Prusoff equation and represent the mean of at least three different determinations. The enzyme concentrations were in the range of 3–11 nM. All hCA isoforms were recombinant ones obtained in-house.

hCA XII [4] = test: Stopped-flow CO2 hydrase inhibition assay, hCA XII; format: biochemical, human; settings: ratio of KIs
Protocol: as §1

HCT-116 = test: MTT antiproliferative assay, HCT-116 (normoxia and CoCl2-induced hypoxia); format: cell-based, human; settings: HCT-116; for IC50: Homo sapiens, MTT, 72 h
Protocol: (§2) These cell lines were cultured as monolayers in Dulbecco’s Modified Eagle’s Medium (DMEM) supplemented with 10% FBS, 2 mM l-glutamine, 100 U/mL penicillin, and 100 µg/mL streptomycin sulfate. […] The cells were sub-cultured using trypsin/EDTA solution, counted with a hemocytometer, and plated on 96-well plates (5000 cells/well), allowing them to form a semi-confluent monolayer overnight. […] DMSO (100 µL/well) was then added to dissolve the formazan crystals with shaking for 10 min, after which the absorb absorbance was read at 590 nm against no-cell blanks using a FLuo Star Optima microplate reader (BMG technologies, Ortenberg, Germany). Cell proliferation was calculated by comparing the OD values of the DMSO control wells with those of the samples, represented as % proliferation relative to the control.

hCA II = settings: stopped-flow CO2 hydrase assay, mean of three assays; cited from earlier work
hCA IX [5] = test: Stopped-flow CO2 hydrase inhibition assay, hCA IX; format: biochemical, human; settings: ratio of KIs
Protocol: as §1

hCA IX [6] = settings: stopped-flow CO2 hydrase assay, mean of three assays; cited from earlier work
hCA XII [7] = settings: stopped-flow CO2 hydrase assay, mean of three assays; cited from earlier work
hCA I = settings: stopped-flow CO2 hydrase assay, mean of three assays; cited from earlier work
MDA-MB-231 = test: MTT antiproliferative assay, MDA-MB-231; format: cell-based; settings: Homo sapiens, normoxic conditions, 72 h
Protocol: as §2

hCA IV [8] = settings: stopped-flow CO2 hydrase assay, mean of three assays; cited from earlier work
[9] = chemically induced hypoxia with CoCl2·6H2O, read-out: IC50 HCT-116 (Hypoxia)
[10] = normoxic conditions, read-out: IC50 HCT-116 (Normoxia)

| IC50 (A549) [µM] | hCA II/hCA IV selectivity ratio (hCA IV [3]) | hCA II/hCA XII selectivity ratio (hCA XII [4]) | IC50 Normoxia / IC50 Hypoxia (HCT-116) | IC50 (HCT-116; [9]) [µM] | IC50 (HCT-116; [10]) [µM] | hCA II/hCA IX selectivity ratio (hCA IX [5]) | IC50 (MDA-MB-231) [µM] | Compound | H2S release half-life t/2 [1] [min] | Time of peak H2S release [1] [min] | H2S release in phosphate buffer [2] | Ki (hCA II) [µM] | Ki (hCA IX [6]) [µM] | Ki (hCA XII [7]) [µM] | Ki (hCA I) [µM] | Ki (hCA IV [8]) [µM] |
| --- | --- | --- | --- | --- | --- | --- | --- | --- | --- | --- | --- | --- | --- | --- | --- | --- |
| – | – | – | – | – | – | – | – | O=C(O)c1ccc(-c2cssc2=S)cc1 [Compound 3] | 3.1 | 20 | minimal H2S release | – | – | – | – | – |
| 23.7 ± 1.61 | 104 | 284 | 0.6 | 11.4 ± 0.22 | 6.62 ± 0.21 | 192 | 6.31 ± 0.22 | NS(=O)(=O)c1ccc(CCN(Cc2ccc(Br)cc2)C(=O)c2ccc(-c3cssc3=S)cc2)cc1 [Compound 22] | – | – | – | 3.66 | 0.0191 | 0.0129 | 7.7 | – |
| 60.9 ± 2.17 | 29.3 | 1148 | 0.8 | 12.7 ± 0.25 | 10.1 ± 0.66 | 209 | 3.25 ± 0.09 | CSc1ccc(CN(CCc2ccc(S(N)(=O)=O)cc2)C(=O)c2ccc(-c3cssc3=S)cc2)cc1 [Compound 29] | 4.6 | – | – | 9.65 | 0.0462 | 0.0084 | 7.21 | 0.404 |

From paper PMC11432087, “Hydrogen Sulfide-Releasing Carbonic Anhydrase Inhibitors Effectively Suppress Cancer Cell Growth” (International Journal of Molecular Sciences, 2024)
